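Results reflect a 48-hour exposure of cells in 96-well plates to compound at five concentrations. GI50: concentration for 50% inhibition of growth. TGI is the concentration that stops growth completely.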
Assays:
Assay in all cases: NCI-60 cell line screen, 48 h
MALME-3M melanoma = tested on: MALME-3M melanoma
NCI-H226 lung = tested on: NCI-H226 lung
KM12 colon = tested on: KM12 colon
EKVX NSCLC = tested on: EKVX NSCLC
SF-268 CNS = tested on: SF-268 CNS
UACC-62 melanoma = tested on: UACC-62 melanoma
IGROV1 ovarian = tested on: IGROV1 ovarian
U251 CNS = tested on: U251 CNS
UACC-257 melanoma = tested on: UACC-257 melanoma
SK-OV-3 ovarian = tested on: SK-OV-3 ovarian

Row | Structure (SMILES) | GI50 (MALME-3M melanoma) [µM] | TGI (MALME-3M melanoma) [µM] | GI50 (NCI-H226 lung) [µM] | TGI (NCI-H226 lung) [µM] | GI50 (KM12 colon) [µM] | TGI (KM12 colon) [µM] | GI50 (EKVX NSCLC) [µM] | TGI (EKVX NSCLC) [µM] | GI50 (SF-268 CNS) [µM] | TGI (SF-268 CNS) [µM] | GI50 (UACC-62 melanoma) [µM] | TGI (UACC-62 melanoma) [µM] | GI50 (IGROV1 ovarian) [µM] | TGI (IGROV1 ovarian) [µM] | GI50 (U251 CNS) [µM] | TGI (U251 CNS) [µM] | GI50 (UACC-257 melanoma) [µM] | TGI (UACC-257 melanoma) [µM] | GI50 (SK-OV-3 ovarian) [µM] | TGI (SK-OV-3 ovarian) [µM]
1 | O=C(Nc1n[nH]c2cc(-c3ccccc3)ccc12)C1CC1 | > 17.7 | > 25 | > 25 | > 25 | 2.11 | > 25 | 24.4 | > 25 | > 21.2 | > 25 | > 25 | > 25 | 19.6 | > 25 | 13.6 | > 25 | > 25 | > 25 | 14.2 | > 25
2 | CN(C)CCC1(C2=CCCC2)CC/C(=C\c2ccc(Cl)cc2)C1=O (stereo not given) | – | 15.4 | – | 28.1 | – | 23.6 | – | 18.8 | – | 26.1 | – | 9.05 | – | 21 | – | 21.8 | – | 8.62 | – | 19.6
3 | CC1=C(/C=C/Cl)CC(Cl)C(C)(Cl)C1 (stereo not given) | – | > 100 | – | > 100 | – | > 100 | – | > 100 | – | > 100 | – | > 100 | – | > 100 | – | > 100 | – | > 100 | – | > 100
4 | CCCCCCCCCCCCCCCC(=O)OCC(C[As](=O)(O)O)OC(=O)CCCCCCCCCCCCCCC (stereo not given) | – | > 100 | – | > 100 | – | > 100 | – | > 100 | – | > 100 | – | > 100 | – | > 100 | – | > 100 | – | > 100 | – | > 100
5 | O=c1cc(NCC(O)CN2CCCC2)n(Cc2ccccc2)c(=O)n1Cc1ccccc1 (stereo not given) | 22.6 | 61.7 | > 100 | > 100 | 18.5 | 36.5 | > 100 | > 100 | 47.5 | > 100 | 20.9 | 47.3 | 26.6 | 95.4 | 43.6 | > 100 | 31.9 | 85.6 | > 100 | > 100
6 | O=C(c1cccc2ccccc12)N1CCC(C2CCN(C(=O)c3cccc4ccccc34)CC2)CC1 | – | > 100 | – | > 100 | – | > 100 | – | > 100 | – | > 100 | – | > 100 | – | > 100 | – | > 100 | – | > 100 | – | > 100
7 | CCOC(=O)C1SC(=Nc2ccc(C)c(C)c2)N=C1C (stereo not given) | – | > 100 | – | > 100 | – | > 100 | – | > 100 | – | > 100 | – | > 100 | – | > 100 | – | > 100 | – | > 100 | – | > 100
8 | CNC(=S)/N=C(\N)N(C)C | – | > 100 | – | > 100 | – | > 100 | – | > 100 | – | > 100 | – | > 100 | – | > 100 | – | > 100 | – | > 10 | – | > 100
9 | c1ccc(Sc2ccc(Cc3nc4cc5ccccc5cc4[nH]3)cc2)cc1 | 9.93 | 66.7 | 2.48 | 26.9 | 2.21 | 46.2 | 12.5 | > 100 | 8.48 | > 100 | 4.17 | 27.2 | 27.1 | > 100 | 3.68 | > 57.9 | 5.33 | 29.1 | 3.27 | > 24.8
10 | COC(=O)[C@@]12C(=O)C=CC(=O)C1C1C(=CC2C)OC2OC3(CCCCC3)OC21 (stereo not given in full) | – | 37.8 | – | 33.7 | – | 36.4 | – | 37.8 | – | 48.6 | – | 29 | – | 35.1 | – | 31.6 | – | 31.5 | – | 33.9
11 | COc1cc2[nH]c3c(c2cc1OC)CCN[C@]31CC[C@]2(CC3c4c(cc(OC)c(O)c42)CCN3C)C[C@H]1OC (stereo not given in full) | – | 36.3 | – | > 100 | – | 35.6 | – | > 100 | – | 68.2 | – | 49 | – | 80.6 | – | 36 | – | 37.1 | – | 59.1
12 | C=CCCCCC/C=C\[C@@H](O)C#CC#C/C=C/CO | > 100 | > 100 | 25.5 | 57.6 | 77.5 | > 100 | > 100 | > 100 | 39 | > 100 | > 100 | > 100 | 23.5 | > 100 | 38.7 | > 100 | > 100 | > 100 | > 100 | > 100
13 | CCCCC(CC)COC(=O)C[N+](C)(C)CCOC(c1ccccc1)c1ccccc1 (stereo not given) | 1.49 | 3.09 | 6.83 | 27.4 | 1.78 | 3.44 | 3.76 | 15.9 | 2.01 | 4.77 | 1.67 | 3.16 | 1.82 | 3.58 | 1.87 | 3.81 | 2.56 | 7.6 | 6.38 | 21.8
14 | O=C1C2C3C=C4c5ccccc5N(c5ccccc5)C4(C2C(=O)N1c1ccc([N+](=O)[O-])cc1)[C@H]1C(=O)N(c2ccc([N+](=O)[O-])cc2)C(=O)[C@@H]31 (stereo not given in full) | – | > 100 | – | > 100 | – | > 100 | – | > 100 | – | > 100 | – | > 100 | – | > 100 | – | > 100 | – | > 100 | – | > 100
15 | C=C(C)CCN[Si](c1ccccc1)(c1ccccc1)C(C)(C)C | – | 36.7 | – | 25.5 | – | 36.3 | – | 54.4 | – | 98 | – | 31.9 | – | 72 | – | 30 | – | 29.1 | – | 69
16 | COc1ccc(C(=O)c2cc(C)c(OC)c(C)c2)cc1OC(=O)CCl | 13.1 | 59.6 | 4.27 | > 100 | < 0.01 | > 65.3 | 0.0928 | > 100 | < 0.011 | > 100 | 0.0402 | > 100 | 0.0352 | > 100 | < 0.01 | > 100 | 19 | > 100 | < 0.0238 | > 100
17 | CCOC(=O)C(=O)Nc1ccccc1CC | – | > 100 | – | > 100 | – | > 100 | – | > 100 | – | > 100 | – | > 100 | – | > 100 | – | > 100 | – | > 100 | – | > 100

From PubChem BioAssay (NCI)
